The values that follow come from ChEMBL document CHEMBL3351763, “Design and synthesis of novel small molecule CCR2 antagonists: evaluation of 4-aminopiperidine derivatives” (Bioorg Med Chem Lett, 2014).

The first experiment concerns the target T1, C-C chemokine receptor type 2 (Homo sapiens, UniProt P41597). The experiment is described as follows: Displacement of [125I]CCL2 from CCR2 in human U2OS cell membranes by radioligand displacement assay.
Target sequence in this assay (P41597 whole entry): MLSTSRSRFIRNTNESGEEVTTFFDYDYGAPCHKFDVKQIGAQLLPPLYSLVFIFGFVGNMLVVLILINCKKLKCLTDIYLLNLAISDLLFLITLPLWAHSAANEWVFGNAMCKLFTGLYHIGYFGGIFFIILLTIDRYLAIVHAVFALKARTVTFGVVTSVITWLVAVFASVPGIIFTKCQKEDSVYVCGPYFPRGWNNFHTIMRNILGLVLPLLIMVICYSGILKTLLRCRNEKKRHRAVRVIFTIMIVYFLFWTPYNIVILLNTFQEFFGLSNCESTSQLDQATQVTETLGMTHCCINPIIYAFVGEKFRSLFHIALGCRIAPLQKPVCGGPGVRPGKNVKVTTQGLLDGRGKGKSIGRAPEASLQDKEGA
By Ki is commonly meant a measure of affinity in units of concentration, obtained from inhibition or displacement. Take `O=C(CNC(=O)c1cccc(C(F)(F)F)c1)NC1CCN(C2CCC(c3ccc4c(c3)OCO4)CC2)CC1` (stereo not given): the Ki was determined as 90 nM.

In turn, `Cc1cccc(C2CCC(N3CCC(NC(=O)CNC(=O)c4cccc(C(F)(F)F)c4)CC3)CC2)c1` (stereo not given) came in with a Ki of 270 nM. Still for that read-out and setting: under `O=C(CNC(=O)c1cccc(C(F)(F)F)c1)NC1CCN(C2CCC(c3ccccc3)CC2)CC1` (stereo not given) stands 74 nM. `COc1cccc(C2CCC(N3CCC(NC(=O)CNC(=O)c4cccc(C(F)(F)F)c4)CC3)CC2)c1` (stereo not given) returned a Ki of 66 nM. Same read-out and setting: as for `O=C(CNC(=O)c1cccc(C(F)(F)F)c1)NC1CCN(C2CCC(c3ccc(O)cc3)CC2)CC1` (stereo not given), the figure is 139 nM.

For the next experiment, the target named is T1, C-C chemokine receptor type 2. The experiment is described as follows: Displacement of [125I]CCL2 from CCR2 in human U2OS cell membranes at 1 uM by radioligand displacement assay. Background: In a radioligand displacement assay an active substance lowers the binding of a labelled ligand.
Target sequence in this assay (P41597 whole entry, looked up): as the sequence (P41597 whole entry) above
As usually defined, the inhibition is the relative decrease from the control value, in per cent. Read a low inhibition as little suppression. `COc1cccc(OC)c1C1CCC(N2CCC(NC(=O)CNC(=O)c3cccc(C(F)(F)F)c3)CC2)CC1` (stereo not given): the inhibition came to 42%.

In the case of `Cc1ccccc1C1CCC(N2CCC(NC(=O)CNC(=O)c3cccc(C(F)(F)F)c3)CC2)CC1` (stereo not given), the inhibition was 26%. On the same count and under the same terms, as for `O=C(CNC(=O)c1cccc(C(F)(F)F)c1)NC1CCN(C2CCc3ccccc3C2)CC1` (stereo not given), the figure is 24%. `Cc1ccc(C2CCC(N3CCC(NC(=O)CNC(=O)c4cccc(C(F)(F)F)c4)CC3)CC2)cc1` (stereo not given) yielded an inhibition of 38%. The molecule `COc1cc(OC)cc(C2CCC(N3CCC(NC(=O)CNC(=O)c4cccc(C(F)(F)F)c4)CC3)CC2)c1` (stereo not given) yielded an inhibition of 41%. With `O=C(CNC(=O)c1cccc(C(F)(F)F)c1)NC1CCN(CCCc2ccccc2)CC1`, the inhibition turned out to be 6%. In turn, `O=C(CNC(=O)c1cccc(C(F)(F)F)c1)NC1CCN(Cc2cn(-c3ccccc3)nn2)CC1` had an inhibition of 12%. On the same count and under the same terms, as for `O=C(CNC(=O)c1cccc(C(F)(F)F)c1)NC1CCN(Cc2ccc(Cl)cc2)CC1`, the figure is 0%; as for `O=C(NCC(=O)N1CCC(NC2CCC(c3ccccc3)CC2)CC1)c1cccc(C(F)(F)F)c1` (stereo not given), 31%. On to `O=C(CNC(=O)c1cccc(C(F)(F)F)c1)NC1CCN(C2CCCC(c3ccccc3)C2)CC1` (stereo not given), for which the inhibition was 10%.
